This is an account of results in ChEMBL document CHEMBL5512659, “Structure optimizing of flavonoids against both MRSA and VRE” (Eur J Med Chem, 2024).

Data set [1] relates to Enterococcus faecalis. Description: Antibacterial activity against multidrug resistant Enterococcus faecalis ATCC 51299 infected in cyclophosphamide immunosuppressed mouse model of abdominal infection assessed as reduction in abscess at 1.25 to 5 mg/kg measured after 60 hrs by H and E staining based analysis. It counts as functional, organism-based. The following applies: dose 1.25-5 mg/kg.

Data set [2] relates to Enterococcus faecalis. Description: Antibacterial activity against multidrug resistant Enterococcus faecalis ATCC 51299 infected in cyclophosphamide immunosuppressed mouse model of abdominal infection assessed as eradication of bacterial colonies in liver at 1.25 to 5 mg/kg measured after 60 hrs relative to control. It counts as functional. To be noted: dose 1.25-5 mg/kg.

For data set [3], the system named is Staphylococcus aureus. The data set is described as follows: Antibacterial activity against methicillin resistant Staphylococcus aureus clinical isolate 003 in presence of 4.5 mM/L K+ (reference value: 0.25 ug/ml). It counts as functional.
Data set [4] deals with Enterococcus faecalis. Description: Synergistic antibacterial activity against multidrug resistant Enterococcus faecalis ATCC 51299 assessed as fractional inhibitory concentration in presence of vancomycin. It counts as functional.
The nature of data set [5]: Cytotoxicity against HEK293T cells assessed as cell viability at 64 ug/ml measured after 48 hrs relative to control. To be noted: human, at 64 µg/mL, read-out: Activity. Format: toxicity, cell-based, HEK-293T.
The subject of data set [6] is Enterococcus faecalis. The data set is described as follows: Antibacterial activity against multidrug resistant Enterococcus faecalis ATCC 51299 infected in cyclophosphamide immunosuppressed mouse model of abdominal infection assessed as eradication of bacterial colonies in ascites at 1.25 to 5 mg/kg measured after 60 hrs relative to control. Format: functional. The following applies: dose 1.25-5 mg/kg.

Data set [7] deals with Enterococcus faecalis. The data set is described as follows: Antibacterial activity against multidrug resistant Enterococcus faecalis ATCC 51299 infected in cyclophosphamide immunosuppressed mouse model of abdominal infection assessed as eradication of bacterial colonies in spleen at 1.25 to 5 mg/kg measured after 60 hrs relative to control. It counts as functional. To be noted: dose 1.25-5 mg/kg.

Data set [8] has as its system Enterococcus faecalis. The data set is described as follows: Synergistic antibacterial activity against multidrug resistant Enterococcus faecalis ATCC 51299 assessed as fractional inhibitory concentration in presence of ampicillin. It counts as functional.
The subject of data set [9] is Staphylococcus aureus. The data set is described as follows: Antibacterial activity against methicillin resistant Staphylococcus aureus clinical isolate 003 in presence of 2.5 mM/L Ca2+ (reference value: 0.25 ug/ml). It counts as functional.
Data set [10] concerns Enterococcus faecalis. The data set is described as follows: Additive antibacterial activity against multidrug resistant Enterococcus faecalis ATCC 51299 assessed as fractional inhibitory concentration in presence of chloramphenicol. Format: functional.
The test system of data set [11] is Staphylococcus aureus. The data set is described as follows: Synergistic antibacterial activity against methicillin resistant Staphylococcus aureus clinical isolate 003 assessed as fractional inhibitory concentration in presence of streptomycin. It counts as functional.
The test system of data set [12] is Enterococcus faecalis. Description: Antibacterial activity against multidrug resistant Enterococcus faecalis ATCC 51299 infected in cyclophosphamide immunosuppressed mouse model of abdominal infection assessed as reduction in cell swelling at 1.25 to 5 mg/kg measured after 60 hrs by H and E staining based analysis. The following applies: dose 1.25-5 mg/kg. It counts as functional, organism-based.

Data set [13] can be described thus: Toxicity in Galleria mellonella assessed as survival rate at 1.25 to 10 mg/kg observed after 7 days. It counts as organism-based. The following applies: in vivo, dose 1.25-10 mg/kg, time 7 day.
For data set [14], the system named is Enterococcus faecalis. The data set is described as follows: Antibacterial activity against multidrug resistant Enterococcus faecalis ATCC 51299 infected in cyclophosphamide immunosuppressed mouse model of abdominal infection assessed as reduction in inflammatory infiltration at 1.25 to 5 mg/kg measured after 60 hrs by H and E staining based analysis. Format: functional, organism-based. To be noted: dose 1.25-5 mg/kg.

The subject of data set [15] is Staphylococcus aureus. Description: Additive antibacterial activity against methicillin resistant Staphylococcus aureus clinical isolate 003 assessed as fractional inhibitory concentration in presence of azithromycin. It counts as functional.
The test system of data set [16] is Staphylococcus aureus. Description: Synergistic antibacterial activity against methicillin resistant Staphylococcus aureus clinical isolate 003 assessed as fractional inhibitory concentration in presence of tetracycline. Format: functional.
The test system of data set [17] is Enterococcus faecalis. The data set is described as follows: Synergistic antibacterial activity against multidrug resistant Enterococcus faecalis ATCC 51299 assessed as fractional inhibitory concentration in presence of azithromycin. Format: functional.
The subject of data set [18] is Staphylococcus aureus. Description: Synergistic antibacterial activity against methicillin resistant Staphylococcus aureus clinical isolate 003 assessed as fractional inhibitory concentration in presence of norfloxacin. Format: functional.
Data set [19] has as its system Staphylococcus aureus. The data set is described as follows: Additive antibacterial activity against methicillin resistant Staphylococcus aureus clinical isolate 003 assessed as fractional inhibitory concentration in presence of vancomycin. It counts as functional.
The test system of data set [20] is Enterococcus faecalis. The data set is described as follows: Additive antibacterial activity against multidrug resistant Enterococcus faecalis ATCC 51299 assessed as fractional inhibitory concentration in presence of norfloxacin. Format: functional.
The test system of data set [21] is Enterococcus faecalis. The data set is described as follows: Synergistic antibacterial activity against multidrug resistant Enterococcus faecalis ATCC 51299 assessed as fractional inhibitory concentration in presence of tetracycline. Format: functional.
Data set [22] concerns Staphylococcus aureus. Description: Additive antibacterial activity against methicillin resistant Staphylococcus aureus clinical isolate 003 assessed as fractional inhibitory concentration in presence of adriamycin hydrochloride. Format: functional.
For data set [23], the system named is Enterococcus faecalis. Description: Antibacterial activity against multidrug resistant Enterococcus faecalis ATCC 51299 infected in cyclophosphamide immunosuppressed mouse model of abdominal infection assessed as reduction in cell degeneration at 1.25 to 5 mg/kg measured after 60 hrs by H and E staining based analysis. Format: functional, organism-based. To be noted: dose 1.25-5 mg/kg.

In data set [24] the test system is Staphylococcus aureus. The data set is described as follows: Antibacterial activity against methicillin resistant Staphylococcus aureus clinical isolate 003 in presence of 2.5 mM/L Ca2+ (reference value: 0.5 ug/ml). Format: functional.
Data set [25] concerns Staphylococcus aureus. Description: Antibacterial activity against methicillin resistant Staphylococcus aureus clinical isolate 003 in presence of 1 mM/L Mg2+ (reference value: 0.5 ug/ml). Format: functional.
For data set [26], the system named is Staphylococcus aureus. The data set is described as follows: Antibacterial activity against methicillin resistant Staphylococcus aureus clinical isolate 003 in presence of 4.5 mM/L K+ (reference value: 0.5 ug/ml). Format: functional.
For data set [27], the system named is Staphylococcus aureus. Description: Antibacterial activity against methicillin resistant Staphylococcus aureus clinical isolate 003 in presence of 140 mM/L Na+ (reference value: 0.5 ug/ml). Format: functional.
Data set [28] relates to Staphylococcus aureus. Description: Antibacterial activity against methicillin resistant Staphylococcus aureus clinical isolate 003 in presence of 2.5 mM/L Ca2+ (reference value: 1 ug/ml). Format: functional.
In data set [29] the test system is Staphylococcus aureus. The data set is described as follows: Antibacterial activity against methicillin resistant Staphylococcus aureus clinical isolate 003 in presence of 4.5 mM/L K+ (reference value: 1 ug/ml). Format: functional.
Data set [30] has as its system Enterococcus faecalis. The data set is described as follows: Antibacterial activity against multidrug resistant Enterococcus faecalis ATCC 51299 in presence of 2.5 mM/L Ca+ (reference value: 32 ug/ml). Format: functional.

One may read the MIC as the least concentration at which growth counts as inhibited.

Calls of active or inactive are those of the source. The calls are words filed in the database; no cut-off is given here.

In the case of `CCCCCCc1c(-c2ccc(OCCCCNCCCN)cc2OCCCCNCCCN)oc2cc(OC)cc(O)c2c1=O`, the result in the data set with Enterococcus faecalis [1], in the data set on Enterococcus faecalis [12], in the data set with Enterococcus faecalis [14] and in the data set with Enterococcus faecalis [23] was Active. The Activity in the data set on Enterococcus faecalis [2] amounted to 97%; in the data set on Enterococcus faecalis [6], 92.2%; in the data set with Enterococcus faecalis [7], 95.5%. The MIC in the data set with Staphylococcus aureus [3] is 0.125 µg/mL; with Staphylococcus aureus [9], 0.25 µg/mL. In addition, the “fractional inhibitory concentration index (FICI)” value was 0.375 with Enterococcus faecalis [4]; 0.375 in the data set with Enterococcus faecalis [8]; 0.75 in the data set with Enterococcus faecalis [10]; 0.375 in the data set with Staphylococcus aureus [11]; 0.75 with Staphylococcus aureus [15]; 0.375 in the data set on Staphylococcus aureus [16]. For the same compound, the “fractional inhibitory concentration index (FICI)” value in the data set with Enterococcus faecalis [17] came out at 0.313; with Staphylococcus aureus [18], 0.5; with Staphylococcus aureus [19], 1; in the data set on Enterococcus faecalis [20], 1; in the data set with Enterococcus faecalis [21], 0.25; in the data set with Staphylococcus aureus [22] it was 0.75. Besides, the viability at 48 h, 64 ug/ml in data set [5] is more than 50%. For the same compound, in data set [13], the survival at 168 h worked out at 100%.
For the compound `CCCCCCc1c(-c2ccc(OCCCCN(C)C)cc2OCCCCN(C)C)oc2cc(OC)cc(O)c2c1=O`, the MIC was determined as 1 µg/mL with Staphylococcus aureus [24], 0.5 µg/mL in the data set with Staphylococcus aureus [25], 0.5 µg/mL in the data set on Staphylococcus aureus [26] and 1 µg/mL in the data set with Staphylococcus aureus [27].
Take `CCCCCCc1c(-c2ccc(OCC(=O)CN[C@H](CCCNC(=N)N)C(=O)OC)cc2OCC(=O)CN[C@H](CCCNC(=N)N)C(=O)OC)oc2cc(OC)cc(O)c2c1=O`: the MIC is 1 µg/mL with Staphylococcus aureus [28], 2 µg/mL in the data set on Staphylococcus aureus [29] and 32 µg/mL in the data set with Enterococcus faecalis [30].
